Test system: non-diabetic and T2DM mice
Assay: Oral glucose tolerance test (OGTT) with borapetoside C
Type: in vivo, ICR mice
Conditions: 5 mg/kg
Experimental: This study was conducted following the University ethical guidelines on animal experimentation and complied with the Guide for the Care and Use of Laboratory Animals published by the US National Institutes of Health (NIH publication no. 85-23, revised 1996). The animal facility was well controlled for temperature (22±1° C.), and humidity (60±5%) and a 12 h/12 h light-dark cycle was maintained with access to food and water ad libitum. Four-week-old male ICR mice were acquired from BioLasco Taiwan Co., Ltd. and maintained at College of Medicine Experimental Animal Center, National Taiwan University. The study was conducted on 8-10 week-old male ICR mice.
T1DM mice were induced by a known method. In brief, an intraperitoneal injection of streptozotocin (STZ; Sigma Chemical Co.; St. Louis, Mo.) at 150 mg/kg was performed in mice that were fasted for 48 h. The induction of T1DM was assessed and confirmed when the mice had plasma glucose levels ≧350 mg/dL, accompanied with polyuria, hyperphagia and decreased body weight. The control mice group received an injection of vehicle and then carried out for 4 weeks. T2DM mice were induced by maintaining on a fat-rich chow diet and fructose-sweetened water for 4 weeks from the age of 4-5 weeks according to previous methods. The induction T2DM mice were assessed by measuring fasting plasma glucose levels and confirmed when plasma glucose level was ≧150 mg/dL after a 4-week induction.
Blood samples were collected from the orbital vascular plexus of mice under anesthesia with sodium pentobarbital (80 mg/kg, intraperitoneal, Sigma Chemical Co., St. Louis, Mo., USA). Blood samples were then centrifuged at 13000 rpm for 5 min, and the plasma was kept on ice prior to the assay. The plasma glucose concentration was measured using commercial kits following manufacturer's instructions (BioSystems S. A., Barcelona, Spain).
To perform OGTT, mice were fasted overnight, divided into 2 groups and then administered a vehicle control and 5 mg/kg borapetoside C. This was followed by administration of a glucose solution at 2 g/kg via tube feeding. Blood samples were withdrawn from the orbital vascular plexus at intervals of 30, 60, 120, and 150 min after glucose administration. For the ITT, mice were fasted for 3 h. Human insulin (Insulin Actrapid) HM; Novo Nordisk, Denmark) was injected intraperitoneally after an intraperitoneal administration of 0.1 mg/kg borapetoside C for 30 min. Blood samples were collected from the orbital vascular plexus at the timed intervals mentioned above.

**Q.** How did the “basal plasma glucose concentration in OGTT” value (T2DM mice) turn out when `COC(=O)C1=CCC[C@H]2[C@]3(C)C[C@@H](c4ccoc4)OC(=O)[C@@H]3C[C@@H](O[C@@H]3O[C@H](CO)[C@@H](O)[C@H](O)[C@H]3O)[C@@]12C` [Borapetoside C, borapetoside C] was run?
**A.** 206.8 ± 19.0 mg/dL

**Q.** And the “decrease of area under the curve (AUC) in OGTT vs vehicle-treated group” value (T2DM mice)?
**A.** 16%

**Q.** What about the “plasma glucose levels at 60, 120 and 150 min vs vehicle-treated mice” value (T2DM mice) of the same compound?
**A.** significantly lower

**Q.** What about the “plasma glucose concentration sixty min after oral glucose administration” value (T2DM mice, glucose 2 g/kg) of the same compound?
**A.** 338.2 ± 24.5 mg/dL

**Q.** And the “basal plasma glucose concentration in OGTT” value (non-diabetic mice)?
**A.** 115 ± 3.5 mg/dL

**Q.** What about the “plasma glucose levels at 120 min and 150 min vs vehicle-treated mice” value (non-diabetic mice) of the same compound?
**A.** significantly lower

**Q.** What about the “plasma glucose concentration at 60 min after oral administration of glucose” value (non-diabetic mice, glucose 2 g/kg) of the same compound?
**A.** 312.8 ± 21.3 mg/dL

**Q.** What about the “decrease of area under the curve (AUC) in OGTT vs vehicle-treated group” value (normal mice) of the same compound?
**A.** 22%

— patent US20150265682A1, “THERAPEUTIC METHODS AND COMPOSITIONS FOR TREATING DIABETES” (Orient Europharma Co., Ltd., priority 2014, published 2015)
